Assay results from ChEMBL document CHEMBL3217571, “Structureactivity relationships of novel iodinated quinoline-2-carboxamides for targeting the translocator protein” (Medchemcomm, 2013).

Tests used:
[1] = Permeability of the compound using immobilized artificial membrane; type: physicochemical
serum albumin = serum albumin (Homo sapiens, UniProt P02768); test: Binding affinity to human serum albumin by HPLC analysis; type: ADME; conditions: read-out: PB (converted)
Translocator protein = Translocator protein (Rattus norvegicus, UniProt P16257); test: Displacement of [3H]-PK11195 from TSPO in Sprague-Dawley rat brain homogenates after 90 mins by liquid scintillation counting analysis; type: tissue-based
Chain of Translocator protein (P16257 whole entry, looked up): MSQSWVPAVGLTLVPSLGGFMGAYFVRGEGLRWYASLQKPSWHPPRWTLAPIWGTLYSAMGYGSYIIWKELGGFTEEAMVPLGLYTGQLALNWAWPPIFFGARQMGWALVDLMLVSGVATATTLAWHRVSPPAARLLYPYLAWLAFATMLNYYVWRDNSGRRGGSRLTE

Chain of serum albumin (P02768 whole entry): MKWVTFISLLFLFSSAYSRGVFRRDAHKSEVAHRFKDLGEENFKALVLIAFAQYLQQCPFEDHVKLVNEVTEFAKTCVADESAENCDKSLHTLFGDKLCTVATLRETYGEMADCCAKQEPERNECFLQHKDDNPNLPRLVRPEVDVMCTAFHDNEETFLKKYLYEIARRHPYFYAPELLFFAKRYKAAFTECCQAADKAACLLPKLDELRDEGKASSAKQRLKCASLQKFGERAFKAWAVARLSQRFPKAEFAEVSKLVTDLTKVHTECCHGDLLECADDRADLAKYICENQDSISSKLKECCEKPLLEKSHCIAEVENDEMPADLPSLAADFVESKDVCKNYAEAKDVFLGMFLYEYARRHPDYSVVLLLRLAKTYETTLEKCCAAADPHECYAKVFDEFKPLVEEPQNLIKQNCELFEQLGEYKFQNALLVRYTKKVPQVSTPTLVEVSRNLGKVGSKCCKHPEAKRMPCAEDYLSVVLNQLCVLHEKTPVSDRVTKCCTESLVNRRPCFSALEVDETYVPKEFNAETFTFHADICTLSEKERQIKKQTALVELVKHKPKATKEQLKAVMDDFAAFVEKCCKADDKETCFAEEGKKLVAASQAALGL

Pm [1] | fraction unbound (serum albumin) | Ki (Translocator protein) | Compound
0.54 | 0.047 | 27.8 nM | O=C(c1nc2ccccc2c(-c2ccccc2)c1CI)N1CCOCC1
0.64 | 0.0772 |  | CCC(C)N(C)C(=O)c1cc2ccccc2c(-c2ccccc2Cl)n1 (stereo not drawn) [PK-11195]

More lines, now with the values behind:

Compound | Pm [1] | fraction unbound (serum albumin) | Ki (Translocator protein)
O=C(c1cc(-c2ccccc2)c2cc(F)ccc2n1)N1CCOCC1 | 0.25 | 0.122 | 5740 nM
CN(C)C(=O)c1nc2ccccc2c(-c2ccccc2)c1CI | 0.55 | 0.0498 | 1340 nM
O=C(c1cc(-c2ccccc2)c2cc(I)ccc2n1)N1CCOCC1 | 0.55 | 0.0462 | 29900 nM
O=C(c1cc(-c2ccccc2)c2cccc(I)c2n1)N1CCOCC1 | 0.41 | 0.0181 | 76100 nM
O=C(c1cc(-c2ccccc2I)c2ccccc2n1)N1CCOCC1 | 0.26 | 0.0876 | 929 nM
CCN(CC)C(=O)c1cc(-c2ccccc2I)c2ccccc2n1 | 0.67 | 0.0591 | 5.01 nM
